Numbers after ± are expanded uncertainties.
Experiments:
[1] = mn = molality of the nth substance listed, in mol/kg; settings: 101 kPa, Liquid
[2] = 101 kPa, Liquid
[3] = wn = mass fraction of the nth substance listed; settings: 101 kPa, Liquid

## NCCCCCCN [1,6-hexanediamine] + CCO
[1]; 303.15 K, m1 = 0.1293
  mass density: 782.3 ± 0.8 kg/m3
  viscosity: 1.011 ± 0.013 mPa·s
[1]; 303.15 K, m1 = 0.2808
  mass density: 784.2 ± 0.8 kg/m3
  viscosity: 1.053 ± 0.013 mPa·s
[1]; 303.15 K, m1 = 0.4406
  mass density: 786.3 ± 0.8 kg/m3
  viscosity: 1.102 ± 0.014 mPa·s
[1]; 303.15 K, m1 = 0.6113
  mass density: 788.6 ± 0.8 kg/m3
  viscosity: 1.162 ± 0.014 mPa·s
[1]; 303.15 K, m1 = 0.7834
  mass density: 791.1 ± 0.8 kg/m3
  viscosity: 1.202 ± 0.015 mPa·s
[1]; 303.15 K, m1 = 0.9637
  mass density: 793.8 ± 0.8 kg/m3
  viscosity: 1.258 ± 0.015 mPa·s
[1]; 308.15 K, m1 = 0.1293
  mass density: 777.9 ± 0.8 kg/m3
  viscosity: 0.9157 ± 0.012 mPa·s
[1]; 308.15 K, m1 = 0.2808
  mass density: 779.7 ± 0.8 kg/m3
  viscosity: 0.9505 ± 0.012 mPa·s
[1]; 308.15 K, m1 = 0.4406
  mass density: 781.9 ± 0.8 kg/m3
  viscosity: 0.9928 ± 0.013 mPa·s
[1]; 308.15 K, m1 = 0.6113
  mass density: 784.7 ± 0.8 kg/m3
  viscosity: 1.046 ± 0.013 mPa·s
[1]; 308.15 K, m1 = 0.7834
  mass density: 787.3 ± 0.8 kg/m3
  viscosity: 1.081 ± 0.013 mPa·s
[1]; 308.15 K, m1 = 0.9637
  mass density: 790.1 ± 0.8 kg/m3
  viscosity: 1.133 ± 0.014 mPa·s
[1]; 313.15 K, m1 = 0.1293
  mass density: 771.6 ± 0.8 kg/m3
  viscosity: 0.8341 ± 0.011 mPa·s
[1]; 313.15 K, m1 = 0.2808
  mass density: 773.3 ± 0.8 kg/m3
  viscosity: 0.8606 ± 0.012 mPa·s
[1]; 313.15 K, m1 = 0.4406
  mass density: 775.2 ± 0.8 kg/m3
  viscosity: 0.8994 ± 0.012 mPa·s
[1]; 313.15 K, m1 = 0.6113
  mass density: 777.2 ± 0.8 kg/m3
  viscosity: 0.9437 ± 0.012 mPa·s
[1]; 313.15 K, m1 = 0.7834
  mass density: 779.3 ± 0.9 kg/m3
  viscosity: 0.975 ± 0.013 mPa·s
[1]; 313.15 K, m1 = 0.9637
  mass density: 781.5 ± 0.9 kg/m3
  viscosity: 1.019 ± 0.013 mPa·s
[1]; 318.15 K, m1 = 0.1293
  mass density: 766.4 ± 0.9 kg/m3
  viscosity: 0.7569 ± 0.011 mPa·s
[1]; 318.15 K, m1 = 0.2808
  mass density: 767.9 ± 0.9 kg/m3
  viscosity: 0.7849 ± 0.011 mPa·s
[1]; 318.15 K, m1 = 0.4406
  mass density: 769.6 ± 0.9 kg/m3
  viscosity: 0.8154 ± 0.011 mPa·s
[1]; 318.15 K, m1 = 0.6113
  mass density: 771.4 ± 0.9 kg/m3
  viscosity: 0.8571 ± 0.012 mPa·s
[1]; 318.15 K, m1 = 0.7834
  mass density: 773.3 ± 0.9 kg/m3
  viscosity: 0.8816 ± 0.012 mPa·s
[1]; 318.15 K, m1 = 0.9637
  mass density: 775.3 ± 0.9 kg/m3
  viscosity: 0.9201 ± 0.012 mPa·s
[1]; 323.15 K, m1 = 0.1293
  mass density: 761.4 ± 0.9 kg/m3
  viscosity: 0.6866 ± 0.01 mPa·s
[1]; 323.15 K, m1 = 0.2808
  mass density: 762.8 ± 0.9 kg/m3
  viscosity: 0.7105 ± 0.01 mPa·s
[1]; 323.15 K, m1 = 0.4406
  mass density: 764.3 ± 0.9 kg/m3
  viscosity: 0.7356 ± 0.011 mPa·s
[1]; 323.15 K, m1 = 0.6113
  mass density: 766 ± 0.9 kg/m3
  viscosity: 0.7761 ± 0.011 mPa·s
[1]; 323.15 K, m1 = 0.7834
  mass density: 767.8 ± 0.9 kg/m3
  viscosity: 0.798 ± 0.011 mPa·s
[1]; 323.15 K, m1 = 0.9637
  mass density: 769.7 ± 0.9 kg/m3
  viscosity: 0.8301 ± 0.011 mPa·s
[1]; 328.15 K, m1 = 0.1293
  mass density: 755.5 ± 1 kg/m3
  viscosity: 0.6275 ± 0.0097 mPa·s
[1]; 328.15 K, m1 = 0.2808
  mass density: 756.8 ± 1 kg/m3
  viscosity: 0.6485 ± 0.0099 mPa·s
[1]; 328.15 K, m1 = 0.4406
  mass density: 758.3 ± 1 kg/m3
  viscosity: 0.6737 ± 0.01 mPa·s
[1]; 328.15 K, m1 = 0.6113
  mass density: 759.9 ± 1 kg/m3
  viscosity: 0.7013 ± 0.01 mPa·s
[1]; 328.15 K, m1 = 0.7834
  mass density: 761.6 ± 1 kg/m3
  viscosity: 0.7227 ± 0.01 mPa·s
[1]; 328.15 K, m1 = 0.9637
  mass density: 763.4 ± 1 kg/m3
  viscosity: 0.7564 ± 0.011 mPa·s

## CCO [ethanol]
[2]; 303.15 K
  mass density: 780.8 ± 0.8 kg/m3
  viscosity: 0.979 ± 0.013 mPa·s
[2]; 308.15 K
  mass density: 776.5 ± 0.8 kg/m3
  viscosity: 0.8877 ± 0.012 mPa·s
[2]; 313.15 K
  mass density: 770.3 ± 0.8 kg/m3
  viscosity: 0.8086 ± 0.011 mPa·s
[2]; 318.15 K
  mass density: 765.2 ± 0.9 kg/m3
  viscosity: 0.7335 ± 0.011 mPa·s
[2]; 323.15 K
  mass density: 760.3 ± 0.9 kg/m3
  viscosity: 0.6677 ± 0.01 mPa·s
[2]; 328.15 K
  mass density: 754.5 ± 1 kg/m3
  viscosity: 0.6104 ± 0.0096 mPa·s

## CCO [ethanol] + NCCCCCCN
[1]; 303.15 K, m2 = 0
  mass density: 780.8 ± 0.8 kg/m3
  viscosity: 0.979 ± 0.013 mPa·s
[1]; 308.15 K, m2 = 0
  mass density: 776.5 ± 0.8 kg/m3
  viscosity: 0.8877 ± 0.012 mPa·s
[1]; 313.15 K, m2 = 0
  mass density: 770.3 ± 0.8 kg/m3
  viscosity: 0.8086 ± 0.011 mPa·s
[1]; 318.15 K, m2 = 0
  mass density: 765.2 ± 0.9 kg/m3
  viscosity: 0.7335 ± 0.011 mPa·s
[1]; 323.15 K, m2 = 0
  mass density: 760.3 ± 0.9 kg/m3
  viscosity: 0.6677 ± 0.01 mPa·s
[1]; 328.15 K, m2 = 0
  mass density: 754.5 ± 1 kg/m3
  viscosity: 0.6104 ± 0.0096 mPa·s

## CCO [ethanol] + O
[3]; 303.15 K, w2 = 0.15
  mass density: 822.7 ± 0.8 kg/m3
  viscosity: 1.383 ± 0.033 mPa·s
[3]; 303.15 K, w2 = 0.2
  mass density: 836 ± 0.9 kg/m3
  viscosity: 1.511 ± 0.036 mPa·s
[3]; 303.15 K, w2 = 0.25
  mass density: 848.8 ± 0.9 kg/m3
  viscosity: 1.611 ± 0.038 mPa·s
[3]; 308.15 K, w2 = 0.15
  mass density: 818.4 ± 0.9 kg/m3
  viscosity: 1.222 ± 0.03 mPa·s
[3]; 308.15 K, w2 = 0.2
  mass density: 831.8 ± 0.9 kg/m3
  viscosity: 1.332 ± 0.032 mPa·s
[3]; 308.15 K, w2 = 0.25
  mass density: 843 ± 0.9 kg/m3
  viscosity: 1.402 ± 0.033 mPa·s
[3]; 313.15 K, w2 = 0.15
  mass density: 813.1 ± 0.9 kg/m3
  viscosity: 1.085 ± 0.027 mPa·s
[3]; 313.15 K, w2 = 0.2
  mass density: 827.1 ± 0.9 kg/m3
  viscosity: 1.174 ± 0.029 mPa·s
[3]; 313.15 K, w2 = 0.25
  mass density: 838.2 ± 0.9 kg/m3
  viscosity: 1.229 ± 0.03 mPa·s
[3]; 318.15 K, w2 = 0.15
  mass density: 807.1 ± 1 kg/m3
  viscosity: 0.9649 ± 0.024 mPa·s
[3]; 318.15 K, w2 = 0.2
  mass density: 821 ± 1 kg/m3
  viscosity: 1.025 ± 0.025 mPa·s
[3]; 318.15 K, w2 = 0.25
  mass density: 833.6 ± 1 kg/m3
  viscosity: 1.085 ± 0.027 mPa·s
[3]; 323.15 K, w2 = 0.15
  mass density: 801.4 ± 1 kg/m3
  viscosity: 0.8601 ± 0.022 mPa·s
[3]; 323.15 K, w2 = 0.2
  mass density: 814.6 ± 1 kg/m3
  viscosity: 0.9113 ± 0.023 mPa·s
[3]; 323.15 K, w2 = 0.25
  mass density: 827.5 ± 1 kg/m3
  viscosity: 0.9573 ± 0.024 mPa·s
[3]; 328.15 K, w2 = 0.15
  mass density: 796.9 ± 1 kg/m3
  viscosity: 0.7734 ± 0.02 mPa·s
[3]; 328.15 K, w2 = 0.2
  mass density: 809.1 ± 1.1 kg/m3
  viscosity: 0.8123 ± 0.021 mPa·s
[3]; 328.15 K, w2 = 0.25
  mass density: 822.5 ± 1.1 kg/m3
  viscosity: 0.8538 ± 0.022 mPa·s

From the NIST ThermoML archive (doi:10.1021/je800942u)
